Assay results published in ChEMBL document CHEMBL1155237, “Selective inhibitors of the mutant B-Raf pathway: discovery of a potent and orally bioavailable aminoisoquinoline” (J Med Chem, 2009).

Tests used:
[1] = biological target: Epidermal growth factor receptor (Homo sapiens) (UniProt P00533); test: Inhibition of EGFR assessed as enzyme activity at 1 uM relative to untreated control; set-up: scale not given: the % may be the effect or the level left
[2] = biological target: Dual specificity protein kinase CLK2 (Homo sapiens) (UniProt P49760); test: Inhibition of CLK2 assessed as enzyme activity at 1 uM relative to untreated control; set-up: scale not given: the % may be the effect or the level left
[3] = biological target: Ribosomal protein S6 kinase alpha-1 (Homo sapiens) (UniProt Q15418); test: Inhibition of RPS6KA1 kinase domain 2 assessed as enzyme activity at 1 uM relative to untreated control; set-up: scale not given: the % may be the effect or the level left
Ribosomal protein S6 kinase alpha-1 (Homo sapiens), sequence (Q15418 whole entry, the tested form may be a part): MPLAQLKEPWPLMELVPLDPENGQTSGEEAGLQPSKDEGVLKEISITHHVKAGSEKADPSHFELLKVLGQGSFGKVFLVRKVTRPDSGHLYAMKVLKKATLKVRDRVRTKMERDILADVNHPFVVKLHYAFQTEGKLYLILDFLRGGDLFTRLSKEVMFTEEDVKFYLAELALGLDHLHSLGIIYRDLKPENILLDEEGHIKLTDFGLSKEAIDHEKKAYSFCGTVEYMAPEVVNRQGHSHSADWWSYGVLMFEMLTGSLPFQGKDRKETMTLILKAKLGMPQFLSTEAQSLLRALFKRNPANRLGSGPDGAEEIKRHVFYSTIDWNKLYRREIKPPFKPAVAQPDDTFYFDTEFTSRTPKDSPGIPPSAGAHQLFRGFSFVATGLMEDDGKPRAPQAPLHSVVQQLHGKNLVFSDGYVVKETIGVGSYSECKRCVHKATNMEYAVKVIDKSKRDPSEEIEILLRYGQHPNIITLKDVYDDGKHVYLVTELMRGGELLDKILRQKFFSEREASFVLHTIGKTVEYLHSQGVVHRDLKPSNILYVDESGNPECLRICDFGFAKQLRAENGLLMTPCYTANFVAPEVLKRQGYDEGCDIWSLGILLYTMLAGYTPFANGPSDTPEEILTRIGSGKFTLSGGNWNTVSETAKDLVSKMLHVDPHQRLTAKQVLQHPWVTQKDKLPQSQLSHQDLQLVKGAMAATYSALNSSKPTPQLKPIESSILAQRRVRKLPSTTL

[4] = Elimination half life in Sprague-Dawley rat at 2 mg/kg, iv and 5 mg/kg, po; format: ADME, organism-based; details: in vivo, read-out: beta t1/2 (converted)
[5] = biological target: Calcium/calmodulin-dependent protein kinase type 1D (Homo sapiens) (UniProt Q8IU85); test: Inhibition of CAMK1D assessed as enzyme activity at 1 uM relative to untreated control; set-up: scale not given: the % may be the effect or the level left
[6] = biological target: Tyrosine-protein kinase CSK (Homo sapiens) (UniProt P41240); test: Inhibition of CSK assessed as enzyme activity at 1 uM relative to untreated control; set-up: scale not given: the % may be the effect or the level left
[7] = biological target: NT-3 growth factor receptor (Homo sapiens) (UniProt Q16288); test: Inhibition of TRKC assessed as enzyme activity at 1 uM relative to untreated control; set-up: scale not given: the % may be the effect or the level left
[8] = biological target: Ephrin type-B receptor 3 (Homo sapiens) (UniProt P54753); test: Inhibition of EPHB3 assessed as enzyme activity at 1 uM relative to untreated control; set-up: scale not given: the % may be the effect or the level left
[9] = biological target: Atypical kinase COQ8A, mitochondrial (Homo sapiens) (UniProt Q8NI60); test: Inhibition of ADCK3 assessed as enzyme activity at 1 uM relative to untreated control; set-up: scale not given: the % may be the effect or the level left
[10] = biological target: Activin receptor type-2A (Homo sapiens) (UniProt P27037); test: Inhibition of ACVR2A assessed as enzyme activity at 1 uM relative to untreated control; set-up: scale not given: the % may be the effect or the level left
[11] = biological target: Ribosomal protein S6 kinase alpha-4 (Homo sapiens) (UniProt O75676); test: Inhibition of RPS6KA4 kinase domain 2 assessed as enzyme activity at 1 uM relative to untreated control; set-up: scale not given: the % may be the effect or the level left
Ribosomal protein S6 kinase alpha-4 (Homo sapiens), sequence (O75676 whole entry, looked up, the tested form may be a part, canonical isoform): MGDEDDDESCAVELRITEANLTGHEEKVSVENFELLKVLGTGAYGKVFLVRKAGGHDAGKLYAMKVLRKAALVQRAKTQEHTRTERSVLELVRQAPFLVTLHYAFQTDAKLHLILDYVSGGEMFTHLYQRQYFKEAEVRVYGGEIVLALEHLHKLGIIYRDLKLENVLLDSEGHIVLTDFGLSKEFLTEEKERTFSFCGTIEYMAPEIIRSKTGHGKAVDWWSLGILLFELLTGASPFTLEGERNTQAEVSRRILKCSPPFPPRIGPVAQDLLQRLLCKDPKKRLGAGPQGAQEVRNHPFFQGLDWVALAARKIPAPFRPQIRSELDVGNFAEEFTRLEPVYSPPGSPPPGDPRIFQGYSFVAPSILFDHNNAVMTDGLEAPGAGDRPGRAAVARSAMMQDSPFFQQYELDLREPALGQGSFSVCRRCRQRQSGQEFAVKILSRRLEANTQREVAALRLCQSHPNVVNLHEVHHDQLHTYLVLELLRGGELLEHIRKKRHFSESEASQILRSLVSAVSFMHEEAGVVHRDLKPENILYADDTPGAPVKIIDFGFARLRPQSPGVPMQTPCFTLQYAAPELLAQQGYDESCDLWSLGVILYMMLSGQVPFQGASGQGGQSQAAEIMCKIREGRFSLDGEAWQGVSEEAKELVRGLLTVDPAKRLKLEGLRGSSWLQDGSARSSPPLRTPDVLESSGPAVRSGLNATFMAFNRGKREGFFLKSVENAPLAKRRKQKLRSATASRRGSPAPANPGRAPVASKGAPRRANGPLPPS

[12] = biological target: Casein kinase I isoform gamma-2 (Homo sapiens) (UniProt P78368); test: Inhibition of CSNK1G2 assessed as enzyme activity at 1 uM relative to untreated control; set-up: scale not given: the % may be the effect or the level left
Casein kinase I isoform gamma-2 (Homo sapiens), sequence (P78368 whole entry, looked up, canonical isoform): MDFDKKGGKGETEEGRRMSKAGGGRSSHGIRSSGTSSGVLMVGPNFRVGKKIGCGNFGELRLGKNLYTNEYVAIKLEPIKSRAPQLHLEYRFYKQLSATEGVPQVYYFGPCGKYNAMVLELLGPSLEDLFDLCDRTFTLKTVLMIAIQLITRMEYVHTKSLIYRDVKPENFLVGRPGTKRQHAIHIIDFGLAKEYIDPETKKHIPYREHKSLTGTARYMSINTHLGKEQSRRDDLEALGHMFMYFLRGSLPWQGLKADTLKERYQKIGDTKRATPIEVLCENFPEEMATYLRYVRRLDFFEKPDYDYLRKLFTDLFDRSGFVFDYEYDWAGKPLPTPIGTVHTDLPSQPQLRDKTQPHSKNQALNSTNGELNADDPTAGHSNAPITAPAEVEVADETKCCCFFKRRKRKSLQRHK

[13] = biological target: Inhibitor of nuclear factor kappa-B kinase subunit beta (Homo sapiens) (UniProt O14920); test: Inhibition of IKK-beta assessed as enzyme activity at 1 uM relative to untreated control; set-up: scale not given: the % may be the effect or the level left
[14] = biological target: Epidermal growth factor receptor (Homo sapiens) (UniProt P04626+P00533+Q15303+P21860); test: Inhibition of EGFR L747-T751del,Sins mutant assessed as enzyme activity at 1 uM relative to untreated control; format: protein assay; set-up: scale not given: the % may be the effect or the level left
[15] = biological target: Calcium/calmodulin-dependent protein kinase kinase 2 (Homo sapiens) (UniProt Q96RR4); test: Inhibition of CAMKK2 assessed as enzyme activity at 1 uM relative to untreated control; set-up: scale not given: the % may be the effect or the level left
[16] = tested on: Epidermal growth factor receptor (Homo sapiens), P00533 [G719S]; test: Inhibition of EGFR G719S mutant assessed as enzyme activity at 1 uM relative to untreated control; format: protein assay; set-up: scale not given: the % may be the effect or the level left
[17] = biological target: Serine/threonine-protein kinase Nek5 (Homo sapiens) (UniProt Q6P3R8); test: Inhibition of NEK5 assessed as enzyme activity at 1 uM relative to untreated control; set-up: scale not given: the % may be the effect or the level left
[18] = biological target: Atypical kinase COQ8B, mitochondrial (Homo sapiens) (UniProt Q96D53); test: Inhibition of ADCK4 assessed as enzyme activity at 1 uM relative to untreated control; set-up: scale not given: the % may be the effect or the level left
[19] = tested on: Epidermal growth factor receptor (Homo sapiens), P00533 [UNDEFINED MUTATION]; test: Inhibition of EGFR L747-E749del A750P assessed as enzyme activity at 1 uM relative to untreated control; format: protein assay; set-up: scale not given: the % may be the effect or the level left
[20] = biological target: Casein kinase I isoform gamma-3 (Homo sapiens) (UniProt Q9Y6M4); test: Inhibition of CSNK1G3 assessed as enzyme activity at 1 uM relative to untreated control; set-up: scale not given: the % may be the effect or the level left
[21] = biological target: Ribosomal protein S6 kinase alpha-5 (Homo sapiens) (UniProt O75582); test: Inhibition of RPS6KA5 kinase domain 2 assessed as enzyme activity at 1 uM relative to untreated control; set-up: scale not given: the % may be the effect or the level left
Ribosomal protein S6 kinase alpha-5 (Homo sapiens), sequence (O75582 whole entry, looked up, the tested form may be a part): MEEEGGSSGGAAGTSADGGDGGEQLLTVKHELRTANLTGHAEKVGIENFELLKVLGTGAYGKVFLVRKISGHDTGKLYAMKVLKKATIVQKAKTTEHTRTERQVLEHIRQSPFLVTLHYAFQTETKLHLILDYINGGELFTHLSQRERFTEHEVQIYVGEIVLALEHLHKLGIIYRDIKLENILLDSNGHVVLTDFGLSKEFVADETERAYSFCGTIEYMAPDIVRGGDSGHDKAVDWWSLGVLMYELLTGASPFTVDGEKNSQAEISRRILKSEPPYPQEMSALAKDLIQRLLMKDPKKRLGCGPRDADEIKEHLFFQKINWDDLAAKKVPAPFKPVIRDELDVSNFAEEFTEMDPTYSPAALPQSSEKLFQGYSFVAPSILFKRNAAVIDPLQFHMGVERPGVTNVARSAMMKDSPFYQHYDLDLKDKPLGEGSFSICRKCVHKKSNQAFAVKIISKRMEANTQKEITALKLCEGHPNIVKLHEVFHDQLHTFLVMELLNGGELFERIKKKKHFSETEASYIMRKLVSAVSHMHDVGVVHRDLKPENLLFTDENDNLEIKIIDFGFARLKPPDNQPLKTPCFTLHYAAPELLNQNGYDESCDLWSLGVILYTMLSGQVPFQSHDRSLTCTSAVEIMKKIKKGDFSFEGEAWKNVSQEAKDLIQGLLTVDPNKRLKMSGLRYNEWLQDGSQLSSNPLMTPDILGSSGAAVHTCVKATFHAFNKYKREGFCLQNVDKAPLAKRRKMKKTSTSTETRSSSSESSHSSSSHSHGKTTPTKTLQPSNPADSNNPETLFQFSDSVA

[22] = Volume of distribution at steady state in Sprague-Dawley rat at 2 mg/kg, iv and 5 mg/kg, po; format: ADME, organism-based; details: in vivo, read-out: Vdss
[23] = biological target: Ankyrin repeat and protein kinase domain-containing protein 1 (Homo sapiens) (UniProt Q8NFD2); test: Inhibition of ANKK1 assessed as enzyme activity at 1 uM relative to untreated control; set-up: scale not given: the % may be the effect or the level left
[24] = biological target: Serine/threonine-protein kinase TAO3 (Homo sapiens) (UniProt Q9H2K8); test: Inhibition of TAOK3 assessed as enzyme activity at 1 uM relative to untreated control; set-up: scale not given: the % may be the effect or the level left
[25] = biological target: Ribosomal protein S6 kinase alpha-5 (Homo sapiens) (UniProt O75582); test: Inhibition of RPS6KA5 kinase domain 1 assessed as enzyme activity at 1 uM relative to untreated control; set-up: scale not given: the % may be the effect or the level left
[26] = biological target: Activin receptor type-2B (Homo sapiens) (UniProt Q13705); test: Inhibition of ACVR2B assessed as enzyme activity at 1 uM relative to untreated control; set-up: scale not given: the % may be the effect or the level left
[27] = biological target: Serine/threonine-protein kinase DCLK3 (Homo sapiens) (UniProt Q9C098); test: Inhibition of DCAMKL3 assessed as enzyme activity at 1 uM relative to untreated control; set-up: scale not given: the % may be the effect or the level left
[28] = biological target: Ephrin type-A receptor 7 (Homo sapiens) (UniProt Q15375); test: Inhibition of EPHA7 assessed as enzyme activity at 1 uM relative to untreated control; set-up: scale not given: the % may be the effect or the level left
Ephrin type-A receptor 7 (Homo sapiens), sequence (Q15375 28-998 limits assumed): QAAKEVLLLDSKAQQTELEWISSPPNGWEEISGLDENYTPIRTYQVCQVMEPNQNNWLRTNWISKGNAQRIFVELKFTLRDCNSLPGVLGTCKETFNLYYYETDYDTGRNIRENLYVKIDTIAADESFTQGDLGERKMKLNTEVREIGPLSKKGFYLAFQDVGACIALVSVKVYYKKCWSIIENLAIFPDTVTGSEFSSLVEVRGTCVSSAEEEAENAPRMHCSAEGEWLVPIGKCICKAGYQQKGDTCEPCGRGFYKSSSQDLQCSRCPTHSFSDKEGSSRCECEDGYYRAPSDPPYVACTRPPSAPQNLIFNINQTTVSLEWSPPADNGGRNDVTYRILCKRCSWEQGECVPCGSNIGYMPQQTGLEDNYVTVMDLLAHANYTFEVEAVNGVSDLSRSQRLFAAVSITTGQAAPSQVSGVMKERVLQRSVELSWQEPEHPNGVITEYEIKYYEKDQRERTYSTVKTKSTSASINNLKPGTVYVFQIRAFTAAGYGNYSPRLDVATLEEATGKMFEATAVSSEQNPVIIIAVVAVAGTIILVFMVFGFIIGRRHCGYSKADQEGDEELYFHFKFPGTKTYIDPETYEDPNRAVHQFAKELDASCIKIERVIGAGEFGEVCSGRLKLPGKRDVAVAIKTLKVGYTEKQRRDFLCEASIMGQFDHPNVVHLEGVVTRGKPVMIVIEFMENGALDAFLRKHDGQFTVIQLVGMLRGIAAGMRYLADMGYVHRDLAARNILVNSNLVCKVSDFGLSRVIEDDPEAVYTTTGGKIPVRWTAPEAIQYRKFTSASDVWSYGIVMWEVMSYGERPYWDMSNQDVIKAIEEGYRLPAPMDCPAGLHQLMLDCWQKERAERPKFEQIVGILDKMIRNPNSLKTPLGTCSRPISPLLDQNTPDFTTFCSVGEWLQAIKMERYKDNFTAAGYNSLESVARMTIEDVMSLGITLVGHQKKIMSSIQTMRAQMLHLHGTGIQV

[29] = biological target: Platelet-derived growth factor receptor beta (Homo sapiens) (UniProt P09619); test: Inhibition of PDGFRB assessed as enzyme activity at 1 uM relative to untreated control; set-up: scale not given: the % may be the effect or the level left
[30] = biological target: Proto-oncogene tyrosine-protein kinase ROS (Homo sapiens) (UniProt P08922); test: Inhibition of ROS1 assessed as enzyme activity at 1 uM relative to untreated control; set-up: scale not given: the % may be the effect or the level left
[31] = biological target: Fibroblast growth factor receptor 2 (Homo sapiens) (UniProt P21802); test: Inhibition of FGFR2 assessed as enzyme activity at 1 uM relative to untreated control; set-up: scale not given: the % may be the effect or the level left
[32] = biological target: Serine/threonine-protein kinase SIK2 (Homo sapiens) (UniProt Q9H0K1); test: Inhibition of SNF1LK2 assessed as enzyme activity at 1 uM relative to untreated control; set-up: scale not given: the % may be the effect or the level left
[33] = biological target: Vascular endothelial growth factor receptor 1 (Homo sapiens) (UniProt P17948); test: Inhibition of FLT1 assessed as enzyme activity at 1 uM relative to untreated control; set-up: scale not given: the % may be the effect or the level left
Vascular endothelial growth factor receptor 1 (Homo sapiens), sequence (P17948 whole entry, the tested form may be a part): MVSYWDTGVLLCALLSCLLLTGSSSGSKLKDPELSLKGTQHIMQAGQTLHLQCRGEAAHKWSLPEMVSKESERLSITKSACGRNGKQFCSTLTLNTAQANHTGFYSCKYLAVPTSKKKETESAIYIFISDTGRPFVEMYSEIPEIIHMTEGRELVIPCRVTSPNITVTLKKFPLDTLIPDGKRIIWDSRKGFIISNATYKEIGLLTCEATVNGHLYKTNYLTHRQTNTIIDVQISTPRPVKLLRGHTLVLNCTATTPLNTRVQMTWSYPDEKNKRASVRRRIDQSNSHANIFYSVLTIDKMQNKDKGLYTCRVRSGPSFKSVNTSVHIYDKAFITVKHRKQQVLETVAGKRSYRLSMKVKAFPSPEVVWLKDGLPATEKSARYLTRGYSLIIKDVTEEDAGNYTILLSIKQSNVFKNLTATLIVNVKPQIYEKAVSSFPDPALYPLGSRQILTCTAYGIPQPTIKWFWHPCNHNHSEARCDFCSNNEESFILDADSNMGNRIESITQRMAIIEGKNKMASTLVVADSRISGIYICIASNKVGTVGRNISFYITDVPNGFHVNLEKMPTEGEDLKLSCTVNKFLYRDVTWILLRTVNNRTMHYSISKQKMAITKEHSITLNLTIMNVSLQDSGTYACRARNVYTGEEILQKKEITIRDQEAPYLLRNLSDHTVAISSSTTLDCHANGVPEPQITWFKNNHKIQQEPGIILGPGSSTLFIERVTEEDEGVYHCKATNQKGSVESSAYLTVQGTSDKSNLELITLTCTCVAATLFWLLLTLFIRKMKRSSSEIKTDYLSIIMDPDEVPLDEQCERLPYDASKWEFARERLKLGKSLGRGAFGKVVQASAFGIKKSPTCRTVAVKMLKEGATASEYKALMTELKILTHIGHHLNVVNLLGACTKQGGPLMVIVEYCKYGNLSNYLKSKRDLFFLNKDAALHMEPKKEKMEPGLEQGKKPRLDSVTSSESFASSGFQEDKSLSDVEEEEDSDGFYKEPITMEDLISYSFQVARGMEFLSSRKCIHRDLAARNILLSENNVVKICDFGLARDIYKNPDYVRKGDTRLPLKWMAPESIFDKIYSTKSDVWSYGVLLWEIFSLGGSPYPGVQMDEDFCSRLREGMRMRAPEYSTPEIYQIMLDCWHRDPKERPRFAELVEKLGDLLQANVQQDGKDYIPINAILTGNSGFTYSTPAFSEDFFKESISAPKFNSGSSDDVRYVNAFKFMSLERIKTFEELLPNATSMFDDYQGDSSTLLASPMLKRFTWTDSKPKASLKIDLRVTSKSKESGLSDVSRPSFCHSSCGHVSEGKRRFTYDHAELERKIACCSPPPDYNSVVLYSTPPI

[34] = biological target: Ribosomal protein S6 kinase alpha-4 (Homo sapiens) (UniProt O75676); test: Inhibition of RPS6KA4 kinase domain 1 assessed as enzyme activity at 1 uM relative to untreated control; set-up: scale not given: the % may be the effect or the level left
[35] = biological target: Serine/threonine-protein kinase DCLK1 (Homo sapiens) (UniProt O15075); test: Inhibition of DCAMKL1 assessed as enzyme activity at 1 uM relative to untreated control; set-up: scale not given: the % may be the effect or the level left
[36] = tested on: Proto-oncogene tyrosine-protein kinase receptor Ret (Homo sapiens), P07949 [M918T]; test: Inhibition of RET M918T mutant assessed as enzyme activity at 1 uM relative to untreated control; set-up: scale not given: the % may be the effect or the level left
[37] = biological target: TGF-beta receptor type-2 (Homo sapiens) (UniProt P37173); test: Inhibition of TGFBR2 assessed as enzyme activity at 1 uM relative to untreated control; set-up: scale not given: the % may be the effect or the level left

With `Cc1ccc2c(Nc3ccc(Cl)cc3)nccc2c1Nc1ncccc1-c1ncnc2[nH]cnc12.Cl.Cl.Cl` the Activity [1] was 100%, the Activity [2] was 100% and the Activity [3] was 96%. For the same compound, the half-life [4] was 3.5 h, the Activity [5] was 100% and the Activity [6] was 100%. For the same compound, the Activity [7] was 2.2%, the Activity [8] was 10% and the Activity [9] was 100%. The Activity [10] was 100%, the Activity [11] was 89% and the Activity [12] was 100%. It also gave an Activity [13] of 100%, an Activity [14] of 98% and an Activity [15] of 98%. It also gave an Activity [16] of 92%, an Activity [17] of 98% and an Activity [18] of 77%. For the same compound, the Activity [19] was 89%, the Activity [20] was 100% and the Activity [21] was 100%. It also gave a Vd [22] of 1.9 L/kg, an Activity [23] of 100% and an Activity [24] of 94%. The Activity [25] was 90%, the Activity [26] was 100% and the Activity [27] was 100%. For the same compound, the Activity [28] was 4.7%, the Activity [29] was 78% and the Activity [30] was 72%. It also gave an Activity [31] of 38%, an Activity [32] of 100% and an Activity [33] of 2.2%. For the same compound, the Activity [34] was 100%, the Activity [35] was 80% and the Activity [36] was 100%. It also gave an Activity [37] of 100%.
